Assay results: patent US8148391B2 (Cephalon, Inc., priority 2006, dated 2012)
Read-outs that look alike come from different tables or passages of the source.

Experiments:
[1] = molecular target: T1, c-Met (cytoplasmic domain) (Homo sapiens, UniProt P08581); experiment: c-Met Kinase Assay (same methods as for ALK, with modifications); format: biochemical
T1 construct: 10 ng/mL c-Met (cytoplasmic domain, Invitrogen Corporation #PV3143); purchased Invitrogen Corporation PV3143
Outline: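 IC50 values were fitted by variable-slope sigmoidal regression of percent inhibition against log compound concentration. Phosphorylation was read with Eu-N1 PT66 antibody after a 15 min, 37 °C reaction. The reaction was initiated with 10 ng/mL c-Met cytoplasmic domain on wells coated with 10 μg/mL PLC-γ in TBS.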

[2] = molecular target: T2, baculovirus-expressed ALK (Homo sapiens, UniProt Q9UM73); experiment: ALK Kinase Assay (ELISA-type, time-resolved fluorescence); format: biochemical
T2 construct: host or cells: baculovirus expression system
T2 sequence (Q9UM73 19-1620): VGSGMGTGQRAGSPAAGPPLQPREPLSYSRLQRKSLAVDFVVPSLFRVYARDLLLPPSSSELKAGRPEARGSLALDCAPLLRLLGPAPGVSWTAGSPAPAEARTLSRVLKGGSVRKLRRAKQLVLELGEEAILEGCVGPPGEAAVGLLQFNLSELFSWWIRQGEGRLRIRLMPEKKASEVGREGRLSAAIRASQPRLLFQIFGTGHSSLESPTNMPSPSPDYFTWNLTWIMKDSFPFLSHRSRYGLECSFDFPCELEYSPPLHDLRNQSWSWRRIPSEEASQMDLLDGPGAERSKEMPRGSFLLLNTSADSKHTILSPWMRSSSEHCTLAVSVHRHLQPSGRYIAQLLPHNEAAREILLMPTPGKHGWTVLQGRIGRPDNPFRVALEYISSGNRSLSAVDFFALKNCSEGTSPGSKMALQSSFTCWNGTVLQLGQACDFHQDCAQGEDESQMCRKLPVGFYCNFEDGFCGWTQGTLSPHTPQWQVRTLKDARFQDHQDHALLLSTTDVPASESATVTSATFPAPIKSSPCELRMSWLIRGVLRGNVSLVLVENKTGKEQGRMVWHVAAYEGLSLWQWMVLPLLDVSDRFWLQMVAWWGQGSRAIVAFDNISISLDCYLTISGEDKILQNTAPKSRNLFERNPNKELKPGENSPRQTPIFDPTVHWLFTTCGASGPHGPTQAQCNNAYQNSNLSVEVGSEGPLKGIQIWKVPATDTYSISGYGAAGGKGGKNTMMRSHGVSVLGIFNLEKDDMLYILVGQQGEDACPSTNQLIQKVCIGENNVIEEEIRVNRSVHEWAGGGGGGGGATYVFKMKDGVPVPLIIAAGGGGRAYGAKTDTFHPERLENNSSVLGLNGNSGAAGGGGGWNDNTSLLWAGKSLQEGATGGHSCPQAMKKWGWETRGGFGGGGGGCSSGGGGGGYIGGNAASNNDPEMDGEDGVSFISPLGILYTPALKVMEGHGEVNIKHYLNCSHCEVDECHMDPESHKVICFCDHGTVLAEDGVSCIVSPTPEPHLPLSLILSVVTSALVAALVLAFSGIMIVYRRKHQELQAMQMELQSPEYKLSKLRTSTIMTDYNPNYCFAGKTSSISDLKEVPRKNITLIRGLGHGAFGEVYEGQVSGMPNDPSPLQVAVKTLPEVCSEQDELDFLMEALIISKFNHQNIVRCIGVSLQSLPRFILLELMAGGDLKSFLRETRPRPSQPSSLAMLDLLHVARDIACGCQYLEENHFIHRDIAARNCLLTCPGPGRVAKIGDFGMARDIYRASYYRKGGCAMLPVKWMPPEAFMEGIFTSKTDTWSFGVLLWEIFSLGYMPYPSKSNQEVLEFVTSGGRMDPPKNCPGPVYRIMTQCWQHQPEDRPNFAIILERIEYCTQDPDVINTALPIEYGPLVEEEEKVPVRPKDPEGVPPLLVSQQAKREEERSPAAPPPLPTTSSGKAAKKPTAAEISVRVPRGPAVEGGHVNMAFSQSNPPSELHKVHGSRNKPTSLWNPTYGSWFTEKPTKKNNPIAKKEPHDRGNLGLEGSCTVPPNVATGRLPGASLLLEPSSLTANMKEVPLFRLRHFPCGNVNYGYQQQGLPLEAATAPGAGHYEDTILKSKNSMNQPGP
Outline: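 Wells were coated with phospholipase C-γ at 10 μg/mL in Tris-buffered saline. Adding 30 ng/ml enzyme started the reaction, which ran at 37° C for 15 minutes before Eu-N1 PT66 antibody detection. Percent inhibition versus log10 concentration gave IC50 by variable-slope fit.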

[3] = c-Met kinase inhibition, 1 μM ATP, read-out: cMet Activity
[4] = ALK kinase inhibition, 1 μM ATP, read-out: ALK Activity
[5] = 1 μM ATP (Km level), read-out: cMet Activity (c-Met Kinase Inhibition, IC50)
[6] = 1 μM ATP (Km level), read-out: ALK Activity (ALK Kinase Inhibition, IC50)
[7] = 1 μM ATP (Km level), 10 ng/mL c-Met, read-out: cMet Activity (c-Met kinase inhibition, IC50 class)
[8] = 1 μM ATP (Km level), 30 ng/ml ALK, 37° C., 15 minutes, read-out: ALK Activity (ALK kinase inhibition, IC50 class)
[9] = c-Met kinase inhibition, 1 μM ATP (Km level), read-out: cMet Activity
[10] = ALK kinase inhibition, 1 μM ATP (Km level), read-out: ALK Activity

T1 sequence (P08581 956-1390 limits assumed): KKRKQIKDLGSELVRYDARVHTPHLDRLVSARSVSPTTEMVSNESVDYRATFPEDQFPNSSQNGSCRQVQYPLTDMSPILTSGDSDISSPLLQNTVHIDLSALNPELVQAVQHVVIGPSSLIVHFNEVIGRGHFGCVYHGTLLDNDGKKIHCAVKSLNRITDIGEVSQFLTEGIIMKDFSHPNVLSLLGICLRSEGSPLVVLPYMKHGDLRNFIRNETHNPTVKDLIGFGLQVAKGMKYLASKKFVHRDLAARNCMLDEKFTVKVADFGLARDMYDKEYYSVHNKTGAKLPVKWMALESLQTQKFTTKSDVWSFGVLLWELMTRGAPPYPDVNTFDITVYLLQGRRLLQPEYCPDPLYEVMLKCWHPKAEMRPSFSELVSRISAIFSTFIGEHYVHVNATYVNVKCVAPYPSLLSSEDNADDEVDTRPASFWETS

For CCN1C(=O)CCC(C)(C)c2ccc(Nc3ncc(Cl)c(Nc4ccc(N5CCOCC5)cc4OC)n3)cc21 [Example 1587, 8-[5-Chloro-4-(2-methoxy-4-morpholin-4-yl-phenylamino)-pyrimidin-2-ylamino]-1-ethyl-5,5-dimethyl-1,3,4,5-tetrahydro-benzo[b]azepin-2-one], which IC50 [1, 3] is on record?
The IC50 was 1000 to 10000 nM.

What about the IC50 [2, 4] of the same compound?
Its IC50 is less than 100 nM.

For CNC(=O)c1cccc(F)c1Nc1nc(Nc2ccc3c(c2)N(CCOC)C(=O)CCC3)ncc1C(F)(F)F [Example 926, 3-Fluoro-2-{2-[1-(2-methoxy-ethyl)-2-oxo-2,3,4,5-tetrahydro-1H-benzo[b]azepin-8-ylamino]-5-trifluoromethyl-pyrimidin-4-ylamino}-N-methyl-benzamide], which IC50 [1, 5] is on record?
The IC50 was less than 100 nM.

What about the IC50 [2, 6] of the same compound?
Its IC50 is less than 100 nM.

How did the IC50 [1, 7] turn out when CC1(C)CCC(=O)Nc2ccc(Nc3ncc(Cl)c(Nc4c(F)cccc4S(C)(=O)=O)n3)cc21 [Example 1260, 7-[5-Chloro-4-(2-fluoro-6-methanesulfonyl-phenylamino)-pyrimidin-2-ylamino]-5,5-dimethyl-1,3,4,5-tetrahydro-1-benzazepin-2-one] was run?
The IC50 was 1000 to 10000 nM.

And the IC50 [2, 8]?
Its IC50 is less than 100 nM.

Which IC50 [1, 5] does the source give for CNC(=O)[C@H]1[C@@H](Nc2nc(Nc3ccc4c(c3)CCN(CCOC)CC4)ncc2Cl)[C@@H]2C=C[C@H]1C2 (relative stereo) [Example 615, (2-exo-3-exo)-3-{5-Chloro-2-[3-(2-methoxy-ethyl)-2,3,4,5-tetrahydro-1H-benzo[d]azepin-7-ylamino]-pyrimidin-4-ylamino}-bicyclo[2.2.1]hept-5-ene-2-carboxylic acid methylamide] here?
The IC50 was 100 to 1000 nM.

And the IC50 [2, 6]?
Its IC50 is less than 100 nM.

For CCN1CCCOc2cc(Nc3ncc(Cl)c(N[C@@H]4CCCC[C@H]4NS(C)(=O)=O)n3)c(F)cc21 [Example 1687, N-{(1R,2R)-2-[5-Chloro-2-(9-ethyl-2-fluoro-6,7,8,9-tetrahydro-5-oxa-9-aza-benzocyclohepten-3-ylamino)-pyrimidin-4-ylamino]-cyclohexyl}-methanesulfonamide], which IC50 [1, 3] is on record?
Its IC50 is 1000 to 10000 nM.

What about the IC50 [2, 4] of the same compound?
Its IC50 is less than 100 nM.

What does the source list for CNC(=O)c1ccccc1Nc1nc(Nc2ccc3c(c2)C2CC3CN(C(C)C)C2)ncc1Cl (centres unmarked) [Example 158, 2-[5-chloro-2-(10-isopropyl-10-aza-tricyclo[6.3.1.0*2,7*]dodeca-2,4,6-trien-4-ylamino)-pyrimidin-4-ylamino]-N-methyl-benzamide]?
IC50 [1, 9]: 100 to 1000 nM; IC50 [2, 10]: < 100 nM

Which results are given for COc1c(Nc2ncc(Cl)c(Nc3ccccc3S(=O)(=O)N3CCCC3)n2)ccc2c1CCCC(NCCO)C2 (centres unmarked) [Example 964, 2-(2-{5-Chloro-4-[2-(pyrrolidine-1-sulfonyl)-phenylamino]-pyrimidin-2-ylamino}-1-methoxy-6,7,8,9-tetrahydro-5H-benzocyclohepten-6-ylamino)-ethanol]?
IC50 [1, 5]: > 10000 nM; IC50 [2, 6]: < 100 nM

CN1CCN(C(=O)n2ccnc2)Cc2ccc(Nc3ncc(Cl)c(N[C@@H]4CCCC[C@H]4NS(C)(=O)=O)n3)cc21 [Example 482, N-((1R,2R)-2-{5-Chloro-2-[4-(imidazole-1-carbonyl)-1-methyl-2,3,4,5-tetrahydro-1H-benzo[e][1,4]diazepin-8-ylamino]-pyrimidin-4-ylamino}-cyclohexyl)-methanesulfonamide] was tested. Which IC50 [1, 9] did it give?
The IC50 was 100 to 1000 nM.

What about the IC50 [2, 10] of the same compound?
The IC50 was less than 100 nM.

Which results are given for CNC(=O)c1cccc(F)c1Nc1nc(Nc2ccc3c(c2)CCN(CCOC)CC3)ncc1Br [Example 1471, 2-{5-Bromo-2-[3-(2-methoxy-ethyl)-2,3,4,5-tetrahydro-1H-benzo[d]azepin-7-ylamino]-pyrimidin-4-ylamino}-3-fluoro-N-methyl-benzamide]?
IC50 [1, 3]: < 100 nM; IC50 [2, 4]: < 100 nM

Which results are given for CCN1C(=O)CCC(C)(C)c2cc(Nc3ncc(Cl)c(Nc4c(Cl)cccc4C(=O)NC)n3)ccc21 [Example 389, 3-Chloro-2-[5-chloro-2-(1-ethyl-5,5-dimethyl-2-oxo-2,3,4,5-tetrahydro-1H-benzo[b]azepin-7-ylamino)-pyrimidin-4-ylamino]-N-methyl-benzamide]?
IC50 [1, 9]: 100 to 1000 nM; IC50 [2, 10]: 100 to 1000 nM

COc1cc2c(cc1Nc1ncc(Cl)c(N[C@@H]3CCCC[C@H]3NS(C)(=O)=O)n1)CCN(CC(F)F)CC2 [Example 762, N-((1R,2R)-2-{5-Chloro-2-[3-(2,2-difluoro-ethyl)-8-methoxy-2,3,4,5-tetrahydro-1H-benzo[d]azepin-7-ylamino]-pyrimidin-4-ylamino}-cyclohexyl)-methanesulfonamide] was tested. Which IC50 [1, 5] did it give?
The IC50 was greater than 10000 nM.

And the IC50 [2, 6]?
The IC50 was less than 100 nM.

For COc1ccc(Nc2nc(Nc3cc4c(cc3OC)CCN(CC(=O)N(C)C)CC4)ncc2Cl)c(NS(C)(=O)=O)c1 [Example 821, 2-{7-[5-Chloro-4-(2-methanesulfonylamino-4-methoxy-phenylamino)-pyrimidin-2-ylamino]-8-methoxy-1,2,4,5-tetrahydro-benzo[d]azepin-3-yl}-N,N-dimethyl-acetamide], which IC50 [1, 5] is on record?
The IC50 was greater than 10000 nM.

What about the IC50 [2, 6] of the same compound?
Its IC50 is less than 100 nM.

With “N-((1R,2R)-2-{5-Chloro-2-[7-(2,2,2-trifluoro-ethylamino)-6,7,8,9-tetrahydro-5H-benzocyclohepten-2-ylamino]-pyrimidin-4-ylamino}-cyclohexyl)-methanesulfonamide [Example 676]” as the compound, how does the IC50 [1, 5] read?
The IC50 was greater than 10000 nM.

And the IC50 [2, 6]?
Its IC50 is less than 100 nM.

CCNC(=O)c1cccc(F)c1Nc1nc(Nc2cc3c(cc2OC)CCN(CC(=O)N(C)C)CC3)ncc1Cl [Example 1119, 2-[5-Chloro-2-(3-dimethylcarbamoylmethyl-8-methoxy-2,3,4,5-tetrahydro-1H-benzo[d]azepin-7-ylamino)-pyrimidin-4-ylamino]-N-ethyl-3-fluoro-benzamide] was tested. Which IC50 [1, 7] did it give?
Its IC50 is 1000 to 10000 nM.

And the IC50 [2, 8]?
Its IC50 is less than 100 nM.

Which results are given for “N-(2-{5-Chloro-2-[3-(2-methoxy-ethyl)-2,3,4,5-tetrahydro-1H-benzo[d]azepin-7-ylamino]-pyrimidin-4-ylamino}-phenyl)-methanesulfonamide [Example 37]”?
IC50 [1, 9]: 1000 to 10000 nM; IC50 [2, 10]: < 100 nM

CCN1CCN(CC)c2cc(Nc3ncc(Cl)c(N[C@@H]4[C@H](C(N)=O)[C@H]5C=C[C@@H]4C5)n3)ccc2C1 [Example 714, (2-exo,3-exo)-3-[5-Chloro-2-(1,4-diethyl-2,3,4,5-tetrahydro-1H-benzo[e][1,4]diazepin-8-ylamino)-pyrimidin-4-ylamino]-bicyclo[2.2.1}hept-5-ene-2-carboxylic acid amide] was tested. Which IC50 [1, 5] did it give?
The IC50 was 1000 to 10000 nM.

What about the IC50 [2, 6] of the same compound?
Its IC50 is less than 100 nM.

What does the source list for CC1(C)CCC(=O)Nc2ccc(Nc3ncc(Cl)c(Nc4ccccc4-c4ncc[nH]4)n3)cc21 [Example 220, 7-{5-Chloro-4-[2-(1H-imidazol-2-yl)-phenylamino]-pyrimidin-2-ylamino}-5,5-dimethyl-1,3,4,5-tetrahydro-benzo[b]azepin-2-one]?
IC50 [1, 9]: 1000 to 10000 nM; IC50 [2, 10]: < 100 nM

CC(=O)N1CCC(=O)NCc2cc(Nc3ncc(Cl)c(Nc4ccccc4CCC#N)n3)ccc21 [Example 1233, 3-{2-[2-(1-Acetyl-4-oxo-1,2,3,4,5,6-hexahydro-benzo[b][1,5]diazocin-8-ylamino)-5-chloro-pyrimidin-4-ylamino]-phenyl}-propionitrile] was tested. Which IC50 [1, 7] did it give?
Its IC50 is 100 to 1000 nM.

And the IC50 [2, 8]?
The IC50 was 100 to 1000 nM.

For CS(=O)(=O)N[C@@H]1CCCC[C@H]1Nc1nc(Nc2ccc3c(c2)CN(CCO)CCS3)ncc1Cl [Example 525, N-((1R,2R)-2-{-5-Chloro-2-[8-(2-hydroxy-ethyl)-6,7,8,9-tetrahydro-5-thia-8-azabenzo-cyclohepten-2-ylamino]-pyrimidin-4-ylamino}cyclohexyl)-methanesulfonamide], which IC50 [1, 5] is on record?
Its IC50 is 1000 to 10000 nM.

What about the IC50 [2, 6] of the same compound?
Its IC50 is 100 to 1000 nM.
